Here are results for 49 molecules from the OPERA property sets (Mansouri et al. 2018).

Values after ≈ are worked out from the molar mass of the structure shown.

Conditions in the first data set: not given
On to `CCC(=O)OC1(c2ccccc2)CCN(C)CC1CC` (centres undefined), for which the logP amounted to 3.61. The molecule `O=C(O)CCCC(=O)c1ccc(-c2ccccc2)cc1` showed a lipophilicity (logP) of 3.35. Same read-out and setting: as for `Nc1ccc2[nH]ncc2c1`, the figure is 0.65; as for `COc1ccc(-c2cc(C#N)c(Cl)nc2C)cc1`, 3.38.

In the case of `Nc1cccc2cccc(N)c12`, the log partition coefficient (logP) amounted to 1.78. `CC(CC(=O)c1ccccc1)C(=O)O` (centres undefined): the logP was 1.62. On the same count and under the same terms, as for `CC(=O)OCN1C(=O)c2cccc3cccc(c23)C1=O`, the figure is 2.34; as for `COc1cc([N+](=O)[O-])c2ncccc2c1`, 1.87. Still for that read-out and setting: to `CCN(CC)CCCN=c1cc2n(-c3ccc(Cl)cc3)c3ccccc3nc-2cc1Nc1ccc(Cl)cc1` belongs 8.05; to `O=P(O)(O)CN(CP(=O)(O)O)CP(=O)(O)O`, -3.53. Turning to `COc1ccc(Nc2ccnc3cc(Cl)ccc23)cc1`, the logP came out at 4.94. Still for that read-out and setting: as for `CCCCCOC(C)=O`, the figure is 2.3.

`N#CCC#N` had a logP of -0.6.

`OCc1c2ccccc2cc2ccccc12` came in with a log partition coefficient (logP) of 3.04. Molecule `CC(=O)NCCc1ccccc1` had a logP of 1.19. The same measure, in the same setting: to `COc1ccc([N+](=O)[O-])cc1NC(C)=O` belongs 1.6; to `CCN(CC)C(=O)CCC(=O)OCn1ncc2c(O)ncnc21`, -0.22; to `COC(=O)c1ccsc1S(=O)(=O)NC(=O)Nc1nc(OC)nc(OC)n1`, 1.3. Still for that read-out and setting: as for `CN1CCN(Cc2cccc(COc3ccccc3)c2)CC1`, the figure is 3.05. `CCCCCCCCCCCCN1CCCC1=O` returned a logP of 4.2. In the case of `CC(C)N(C(=O)SCC(Cl)=CCl)C(C)C`, the logP was found to be 4.49. Consider `CCCCN(CCOC(C)=O)c1ccc(N=Nc2c(C#N)cc([N+](=O)[O-])cc2C#N)c(C)c1`, for which the lipophilicity (logP) is 5.5 and the solubility came out at 1.32e-06 mM (≈ 0.00059 µg/mL). The molecule `CNC(=O)CCc1c[nH]c2ccccc12` had a lipophilicity (logP) of 1.23.

The molecule `COc1ncnc2c1ncn2C1OC(COC(=O)c2ccccc2)C(O)C1OC(=O)c1ccccc1` (centres undefined) displayed a lipophilicity (logP) of 3.39. On the same count and under the same terms, to `Nc1ncc2ncn(COCCO)c2n1` belongs -1.08.

Turning to `CCN1CCC[C@H]1CNC(=O)c1c(OC)ccc(Br)c1OC`, the lipophilicity (logP) worked out at 2.1. Same read-out and setting: as for `CC(C)(C)c1ccc2oc(N(N)CCC#N)nc2c1`, the figure is 2.82; as for `N#Cc1cc(-c2ccncc2)cnc1Cl`, 1.74; as for `Cc1ccc(OCCN(C)C)cc1`, 2.17. The same measure, in the same setting: to `Cc1cc(OCCN(C)C)c(C(C)C)cc1O` belongs 2.93; to `N[C@@H](CSSC[C@H](N)C(=O)O)C(=O)O`, -5.08; to `ClCC1(CCl)C2CC(Cl)(Cl)C1(C(Cl)Cl)CC2(Cl)Cl` (centres undefined), 5.79.

Still in this data set, the particulars now being: 20 °C.
Consider `CC(CO)(CO)[N+](=O)[O-]`, for which the solubility is 5920 mM (≈ 800000 µg/mL). `ClC(Br)Br` returned a solubility of 12.5 mM (≈ 2600 µg/mL). On the same count and under the same terms, to `Nc1ccc(Cl)c(Cl)c1` belongs 0.568 mM (≈ 92 µg/mL); to `CCC(CO)[N+](=O)[O-]` (centres undefined), 453 mM (≈ 54000 µg/mL).

The data set is the same for the next values; noted with them: 23.0 °C.
The molecule `c1ccc2c(c1)OCCO2` came in with a log10 OH rate constant (cm³/molecule/s) of -10.6.

Still in this data set, the particulars now being: 24.0 °C.
In turn, `CCOCCC(=O)OCC` came in with a log10 OH rate constant (cm³/molecule/s) of -10.6. `c1ccc(Oc2ccccc2)cc1`: the log10 OH rate constant (cm³/molecule/s) is -11.

Still in this data set, the particulars now being: 25 °C.
Turning to `Cc1ccc(O)c(C)c1`, the solubility was determined as 64.4 mM (≈ 7870 µg/mL). The molecule `ClC1=C(Cl)C(Cl)(Cl)C(Cl)=C1Cl` yielded a solubility of 0.0066 mM (≈ 1.8 µg/mL). Turning to `O=C1c2ccccc2C(=O)c2c(O)c(O)cc(O)c21`, the solubility was 0.025 mM (≈ 6.4 µg/mL). Against the preceding molecule, the solubility is about 3.8-fold higher. Same read-out and setting: as for `CC(=O)N(C)N=O`, the figure is 170 mM (≈ 17400 µg/mL); as for `N#CCC#N`, 2010 mM (≈ 133000 µg/mL). On the same count and under the same terms, as for `Brc1ccc(I)cc1`, the figure is 0.0312 mM (≈ 8.82 µg/mL).

The molecule `CC(C)N(C(=O)SCC(Cl)=CCl)C(C)C` returned a solubility of 0.0518 mM (≈ 14 µg/mL). Compared with the last molecule, the solubility is about 1.7-fold higher. On the same count and under the same terms, to `c1ccc(Oc2ccccc2)cc1` belongs 0.106 mM (≈ 18 µg/mL); to `Nc1ncc2ncn(COCCO)c2n1`, 83.7 mM (≈ 17500 µg/mL).

The data set is the same for the next values; noted with them: 25.0 °C.
As to `C=CCOC(F)(F)C(F)F`, the log10 OH rate constant (cm³/molecule/s) is -10.7. `COC(F)(F)C(F)F` registered a log10 OH rate constant (cm³/molecule/s) of -12.7.

Molecule `ClC(Cl)C(Cl)Cl` showed a log10 OH rate constant (cm³/molecule/s) of -12.6. On to `COC(F)(F)C(F)(F)F`, for which the log10 OH rate constant (cm³/molecule/s) is -13.9. Molecule `CC(Cl)C(C)Cl` (centres undefined) displayed a log10 OH rate constant (cm³/molecule/s) of -12.

What is called logP is a log measure of how a compound divides between an organic and an aqueous phase. Higher therefore signals a more lipophilic compound. Broadly, the solubility is the concentration that dissolves in the medium under given conditions. The low end stands for a poorly soluble substance, the high end for a readily soluble substance.
